According to US20230391868A1, “COMPOSITIONS FOR AND METHODS OF TREATING CANCER” (The George Washington University, priority 2022, published 2023):

Key:
[1] = test system: A31A7 macrophages and BMDMs; test: Macrophage M1/M2 marker gene expression by qRT-PCR; assay type: cell-based, mouse
Procedure: Bone marrow-derived macrophages were isolated from the femurs and tibias of wild-type C57/Bl6, HDAC6 knockout (C57BL/6J-Hdac6em2Lutzy/J, 029318, Jackson Laboratory), or UBC-GFP (C57BL/6-Tg(UBC-GFP)30Scha/J, 004353, Jackson Laboratory). Isolated bone marrow cells were cultured in RPMI 1640 complete medium with 10% FBS, 1% NEAA, and 1% penicillin-streptomycin in 5% CO2 at 37° C. Medium was supplemented with murine recombinant M-CSF (20 ng/mL, 576404, Biolegend) to differentiate monocytes into macrophages. Three days after bone marrow isolation, undifferentiated and floating cells were washed with PBS and replaced with fresh RPMI media. […]
(§1) Macrophages were polarized to M1-like phenotype using 50 ng/mL of interferon gamma (IFNγ, 575306, Biolegend) and 100 ng/mL of bacterial lipopolysaccharide (LPS, L2880, Sigma Aldrich, St. Louis, MO) for 24 hours. To polarize macrophages towards the M2-like phenotype, macrophages were stimulated with 20 ng/mL of IL-4 (214-14, PeproTech) and 20 ng/mL of IL-13 (575904, Biolegend). THP1 monocytes were treated with 5 ng/mL of phorbol 12-myristate 13-acetate (PMA) to induce differentiation into macrophages. Once converted to macrophages, media was replaced to remove PMA prior to treatment and/or polarization. Polarization towards M1 and M2 phenotypes was performed with respective recombinant human cytokines from PeproTech: 50 ng/mL of IFNγ (300-02), 20 ng/mL IL-4 (200-04), and 20 ng/mL IL-13 (200-13). 100 ng/mL LPS was also used to polarize toward the M1 phenotype. 3. In vivo Studies.
(§2) qRT-PCR: Total RNA was extracted from cells using the Trizol reagent according to manufacturer's instructions (ThermoFisher Scientific, 15596018). Samples were then processed immediately or stored at −80° C. RNA was quantified using a NanoDrop One Spectrophotometer (ThermoFisher Scientific). The 260/280 ratios were routinely over 1.8. Sample cDNA was produced using the iScript cDNA synthesis kit (Bio-Rad, 1708891). Target mRNA was quantified using MyIQ single-color real-time PCR detection system from Bio-Rad (Bio-Rad, Hercules, CA) and iQ SYBR green Supermix (Bio-Rad, 1708882). The following primers were synthesized by Invitrogen (Waltham, MA) with sequences designed by Origene (Rockville, MD): mouse R-actin (MP200232), mouse Nos2 (MP208933), mouse MRC1 (MP207800), human R-actin (HP204660), human IL-1β (HP200544), human MRC1 (HP206121), human NOS2 (HP200591), human CD209 (HP214086), mouse SIRPα (MP215450), mouse LRP1 (MP207604), human LRP1 (HP206040), mouse MFGE8 (MP208190), human MFGE8 (HP225757), mouse CD36 (MP201923), human CD36 (HP200058), and mouse CD47 (MP201932). Primers for mouse ARG-1 (PPM31770C) and human SIRPα (QT01031051) were purchased from Qiagen (Hilden, Germany). Human CD47 primer sequences were obtained from Sudo T, et al and are 5′-[…]-3′ (sense) (SEQ ID NO:01) and 5′-[…]-3′ (antisense) (SEQ ID NO:02) (Sudo T, et al. (2017) Oncol. Lett. 14:801-809). Human CD86 primer sequences are 5′-[…]-3′ (sense) (SEQ ID NO:03) and 5′-[…]-3′ (antisense) (SEQ ID NO:04). Mouse CD80 sequences are 5′-[…]-3′ (sense) (SEQ ID NO:05) and 5′-[…]-3′ (antisense) (SEQ ID NO:06). Cycling conditions were set as per manufacturer's instructions. Single product amplification was confirmed by melting curve analysis. Quantification is expressed in arbitrary units and target mRNA levels were normalized to R-actin expression.

THP1-derived macrophages = test: M1/M2 marker gene expression in THP1-derived macrophages by qRT-PCR; assay type: cell-based, human
Procedure: as §1
as §2, with “expression. […]” for “expression.”

B16 melanoma cells = test: Cd47 mRNA upon IFNγ stimulation in B16 cells; assay type: cell-based, mouse; settings: IFNγ for 12 hours
Procedure: qRT-PCR: Total RNA was extracted from cells using the Trizol reagent according to manufacturer's instructions (ThermoFisher Scientific, 15596018). Samples were then processed immediately or stored at −80° C. RNA was quantified using a NanoDrop One Spectrophotometer (ThermoFisher Scientific). The 260/280 ratios were routinely over 1.8. Sample cDNA was produced using the iScript cDNA synthesis kit (Bio-Rad, 1708891). Target mRNA was quantified using MyIQ single-color real-time PCR detection system from Bio-Rad (Bio-Rad, Hercules, CA) and iQ SYBR green Supermix (Bio-Rad, 1708882). The following primers were synthesized by Invitrogen (Waltham, MA) with sequences designed by Origene (Rockville, MD): mouse R-actin (MP200232), mouse Nos2 (MP208933), mouse MRC1 (MP207800), human R-actin (HP204660), human IL-1β (HP200544), human MRC1 (HP206121), human NOS2 (HP200591), human CD209 (HP214086), mouse SIRPα (MP215450), mouse LRP1 (MP207604), human LRP1 (HP206040), mouse MFGE8 (MP208190), human MFGE8 (HP225757), mouse CD36 (MP201923), human CD36 (HP200058), and mouse CD47 (MP201932). Primers for mouse ARG-1 (PPM31770C) and human SIRPα (QT01031051) were purchased from Qiagen (Hilden, Germany). […] Quantification is expressed in arbitrary units and target mRNA levels were normalized to R-actin expression.
Although the mechanism by which IFNγ drives CD47 upregulation is unclear, IFNγ expression correlates to CD47 expression in skin cutaneous melanoma (Ye Z H, et al. (2021) Transl. Oncol. 14:101162). The kinetics of Cd47 mRNA in SM1 and B16 cells upon IFNγ stimulation (100 ng/mL) were evaluated and these mouse melanoma models were determined to have different kinetics (FIG. 9A-FIG. 9B). It was determined that 12 hours was a time point for both models to sustain the IFNγ-mediated upregulation. In FIG. 9B, the role of HDAC6 inhibitors NextA and Tubastatin A in abrogating Cd47 upregulation upon stimulation with IFNγ for 12 hours was evaluated.

mouse CD47 promoter = test: CD47-luciferase reporter assay in SM1 melanoma cells; assay type: cell-based; settings: SM1 transfected with CD47-luciferase reporter; NextA at different concentrations (FIG. 3D)
Procedure: The mouse CD47 or SIRPα promoters were cloned into a promoterless pGL4.20[luc2/puro] vector using Genentech's cloning services (San Francisco, CA, USA). Vectors were transfected into SM1 and B16 melanoma cells using Lipofectamine 3000 (L3000008, ThermoFisher) and transfected cells were selected using puromycin. A31A7 macrophages were transiently transfected using jetOPTIMUS DNA transfection reagent (Polyplus, NY, USA). Luminescence was measured using the Luciferase Assay System (E4550, Promega) in a SpectraMax i3× Multi-Mode Microplate Reader (Molecular Devices).
Furthermore, to investigate whether HDAC6 controls CD47 expression at the transcriptional level, the mouse CD47 promoter was cloned into a promoterless pGL4.20[luc2/puro] vector. SM1 melanoma cells were transfected with the CD47-luciferase reporter vector and stimulated with IFNγ in the absence or presence of NextA at different concentrations and measured luminescence. Treatment with NextA repressed IFNγ-mediated upregulation of Cd47 (FIG. 3D).

SIRPα = SIRPα expression on NK cells; assay type: cell-based

## CCCCN(Cc1ccc(C(=O)NO)cc1)C(=O)Nc1ccccc1 [NextA, Nexturastat A]
[1]; A31A7, 5 μM of NextA
  phenotypic changes in both macrophage polarizations: elicited observable phenotypic changes
[1]; A31A7, different concentrations of NextA, qRT-PCR (FIG. 7B)
  expression of Cd80 in M1 polarized macrophages: concentration-dependent effect
[1]; A31A7, different concentrations of NextA, qRT-PCR (FIG. 7C)
  expression of Arg1 in M2 polarized macrophages: concentration-dependent effect
[1]; A31A7 and BMDMs polarized to M1 or M1(IFNγ), 5 μM (FIG. 1A)
  Nos2 and Cd80 at the transcriptional level: tended to significantly upregulate
[1]; A31A7 cells and BMDMs, M2, qRT-PCR, 5 μM (FIG. 1C)
  expression of M2-associated markers Arg1 and Mrc1: significantly downregulated
THP1-derived macrophages; THP1-derived M1 macrophages, 5 μM NextA (FIG. 1H)
  M1-associated markers NOS2, CD86, and IL1B: either unaffected or significantly upregulated
THP1-derived macrophages; THP1-derived M2 macrophages, 5 μM NextA (FIG. 1I)
  expression of M2-associated markers CD206 and CD209 at the transcriptional level: significantly downregulated
B16 melanoma cells
  IFNγ-driven Cd47 upregulation at the transcriptional level: repressed these effects
Mouse CD47 promoter
  IFNγ-mediated upregulation of Cd47 (luminescence): repressed
SIRPα
  SIRPα expression on NK cells: downregulated
